Data from ChEMBL document CHEMBL5576160, “N-Substituted Pyrrole-Based Heterocycles as Broad-Spectrum Filoviral Entry Inhibitors” (J Med Chem, 2024).
Activity calls are given as the source filed them. The rule behind the calls is not given here.

What was measured:
Ebolavirus [1] = assay: Antiviral activity against pseudotyped EBOV 1976 Zaire Mayinga assessed as inhibition of viral growth; assay type: functional, organism-based; details: Orthoebolavirus
Marburgvirus [2] = assay: Antiviral activity against pseudotyped Marburgvirus 2005 Lake Victoria Angola assessed as inhibition of viral growth; assay type: functional, organism-based; details: Orthomarburgvirus
Ebolavirus [3] = assay: Antiviral activity against infectious EBOV 1976 Zaire Mayinga assessed as inhibition of viral growth; assay type: functional, organism-based; details: Orthoebolavirus
Ebolavirus [4] = assay: Antiviral activity against pseudotyped EBOV Mayinga infected in human A549 cells assessed as inhibition of Pseudoviral entry incubated for 40 hrs; assay type: functional, organism-based; details: Orthoebolavirus, A549, 40 h
[5] = Selectivity index, ratio of CC50 for cytotoxicity against human A549 cells to EC50 for antiviral activity against pseudotyped EBOV Mayinga infected in human A549 cells assessed as inhibition of Pseudoviral entry; assay type: toxicity, cell-based; details: read-out: Ratio CC50/EC50
Marburgvirus [6] = assay: Antiviral activity against pseudotyped Marburgvirus Angola infected in human A549 cells assessed as inhibition of Pseudoviral entry incubated for 40 hrs; assay type: functional, organism-based; details: Orthomarburgvirus, A549, 40 h
[7] = Selectivity index, ratio of CC50 for cytotoxicity against human A549 cells to EC50 for antiviral activity against pseudotyped Marburgvirus Angola infected in human A549 cells assessed as inhibition of Pseudoviral entry; assay type: toxicity, cell-based; details: read-out: Ratio CC50/EC50
Sudan ebolavirus [8] = assay: Antiviral activity against pseudotyped Sudan ebolavirus Gulu infected in human A549 cells assessed as inhibition of viral growth; assay type: functional, organism-based
Bundibugyo virus = assay: Antiviral activity against pseudotyped Bundibugyo virus infected in human A549 cells assessed as inhibition of viral growth; assay type: functional, organism-based
Tai Forest ebolavirus = assay: Antiviral activity against pseudotyped Tai Forest ebolavirus infected in human A549 cells assessed as inhibition of viral growth; assay type: functional, organism-based
Ebolavirus [9] = assay: Antiviral activity against EBOV Mayinga infected in human HeLa cells assessed as inhibition of viral replication incubated for 40 hrs; assay type: functional, organism-based; details: Orthoebolavirus
Sudan ebolavirus [10] = assay: Antiviral activity against pseudotyped Sudan ebolavirus Gulu infected in human HeLa cells assessed as inhibition of viral replication; assay type: functional, organism-based
Marburgvirus [11] = assay: Antiviral activity against Marburgvirus Angola infected in human Huh-7 cells assessed as inhibition of viral replication; assay type: functional, organism-based; details: Orthomarburgvirus
[12] = Stability in human plasma measured after 60 mins; assay type: ADME, cell-free; details: read-out: Stability
[13] = Stability in mouse plasma measured after 60 mins; assay type: ADME, cell-free; details: read-out: Stability
Ebolavirus [14] = assay: Antiviral activity against pseudotyped EBOV Mayinga infected in human A549 cells assessed as inhibition of viral growth at 3 uM measured after 3 hrs; assay type: functional, organism-based
Marburgvirus [15] = assay: Antiviral activity against pseudotyped Marburgvirus Angola infected in human A549 cells assessed as inhibition of viral growth at 10 uM entry measured after 2 hrs; assay type: functional, organism-based
CYP2C9 = CYP2C9 (Homo sapiens, UniProt P11712); assay: Inhibition of CYP2C9 in human liver microsomes using tolbutamide as substrate at 10 uM preincubated with compound for 5 mins followed by NADPH addition and measured after 20 mins by LC-MS/MS analysis relative to control; assay type: ADME, Microsome; details: probe tolbutamide, time 25 min
CYP2D6 = CYP2D6 (Homo sapiens, UniProt P10635); assay: Inhibition of CYP2D6 in human liver microsomes using dextromethorphan as substrate at 10 uM preincubated with compound for 5 mins followed by NADPH addition and measured after 20 mins by LC-MS/MS analysis relative to control; assay type: ADME, Microsome; details: probe dextromethorphan, time 25 min
[16] = Metabolic stability in human microsome measured at 60 min; assay type: ADME; details: microsomes, read-out: Stability
[17] = Binding affinity to EBOV glycoprotein assessed as dissociation constant by SPR analysis; set-up: species or system Ebolavirus

CYP2C9, sequence (P11712 whole entry): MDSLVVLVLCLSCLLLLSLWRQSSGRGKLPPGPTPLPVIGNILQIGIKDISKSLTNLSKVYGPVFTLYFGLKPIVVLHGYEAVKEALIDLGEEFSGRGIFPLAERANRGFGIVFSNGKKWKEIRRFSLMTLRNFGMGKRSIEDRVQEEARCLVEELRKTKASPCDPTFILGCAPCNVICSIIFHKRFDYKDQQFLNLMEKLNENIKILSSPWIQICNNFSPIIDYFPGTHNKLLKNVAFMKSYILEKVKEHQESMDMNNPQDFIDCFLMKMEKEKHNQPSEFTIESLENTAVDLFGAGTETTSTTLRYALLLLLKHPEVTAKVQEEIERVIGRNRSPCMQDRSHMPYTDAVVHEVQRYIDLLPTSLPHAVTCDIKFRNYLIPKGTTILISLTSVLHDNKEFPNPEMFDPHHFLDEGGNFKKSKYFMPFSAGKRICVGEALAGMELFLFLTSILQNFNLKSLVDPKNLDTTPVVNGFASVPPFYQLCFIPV
CYP2D6, sequence (P10635 whole entry): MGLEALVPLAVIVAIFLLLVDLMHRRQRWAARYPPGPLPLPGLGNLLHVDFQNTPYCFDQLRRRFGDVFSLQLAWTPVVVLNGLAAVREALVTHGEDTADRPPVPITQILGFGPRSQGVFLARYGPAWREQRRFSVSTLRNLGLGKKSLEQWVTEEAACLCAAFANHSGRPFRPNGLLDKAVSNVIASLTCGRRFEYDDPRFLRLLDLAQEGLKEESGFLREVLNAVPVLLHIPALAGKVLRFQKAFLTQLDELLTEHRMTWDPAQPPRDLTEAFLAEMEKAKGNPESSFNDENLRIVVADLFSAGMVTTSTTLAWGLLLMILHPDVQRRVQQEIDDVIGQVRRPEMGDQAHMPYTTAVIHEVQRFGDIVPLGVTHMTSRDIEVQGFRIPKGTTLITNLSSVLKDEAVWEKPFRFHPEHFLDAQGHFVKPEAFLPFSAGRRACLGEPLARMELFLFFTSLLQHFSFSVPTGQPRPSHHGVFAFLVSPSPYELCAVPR

Compound	EC50 (Ebolavirus [4]) [µM]	selectivity ratio [5]	EC50 (Marburgvirus [6]) [µM]	selectivity ratio [7]	EC50 (Sudan ebolavirus [8]) [µM]	EC50 (Bundibugyo virus) [µM]	EC50 (Tai Forest ebolavirus) [µM]	EC50 (Ebolavirus [9]) [µM]	EC50 (Sudan ebolavirus [10]) [µM]	EC50 (Marburgvirus [11]) [µM]	remaining at 1 h [12] [%]	remaining at 1 h [13] [%]	Activity (Ebolavirus [14])	Activity (Marburgvirus [15])	Kd [17] [µM]	further results
CN(C)CCNC(=O)c1cc2occc2n1Cc1ccc(Cl)cc1	1.26	50	6.47	9.8	1.04	1.95	4.3	2.43	3.29	6.69	100	100	–	–	–	EC50 (Ebolavirus [1]): 1.26 µM; EC50 (Marburgvirus [2]): 7.7 µM; EC50 (Ebolavirus [3]): 5.2 µM
CN(C)C1CCN(C(=O)c2cc3ccccc3n2CC2CCCCC2)CC1	0.295	170	3.34	15	–	–	–	0.391	0.652	1.32	100	100	inactive	inactive	–	inhibition at 20 min, 10 µM (CYP2C9): 4.82%; inhibition at 20 min, 10 µM (CYP2D6): 19.1%
CN(C)C1CCN(C(=O)c2cc3occc3n2Cc2ccc(Cl)cc2)CC1	1.05	58	11.5	5.3	0.641	1.99	5.6	6.21	0.5	7.96	100	100	–	–	–	–
CN(C)C1CCN(C(=O)c2cn(Cc3ccccc3)c3ccccc23)CC1	2.84	–	14.6	6.9	–	–	–	–	–	–	100	100	–	–	–	remaining at 1 h [16]: 95.7%
CN(C)CCOc1ccc(/C(=C(/CCCl)c2ccccc2)c2ccccc2)cc1 [TOREMIFENE]	–	–	–	–	–	–	–	–	–	–	–	–	inactive	inactive	18.9	–
OCCOc1ccc(/C(=C(/CCCl)c2ccccc2)c2ccccc2)cc1 [OSPEMIFENE]	–	–	–	–	–	–	–	–	–	–	–	–	–	–	19.8	–
